Assay results taken from patent US20240315992A1, “AMINOXY ACID-BASED ANTIBACTERIAL COMPOUNDS AND METHODS THEREOF” (The University of Hong Kong, priority 2023, published 2024).

Tests used:
[1] = tested on: Staphylococcus aureus strain USA300-LAC; assay: Non-lethal bacteremia model, bacteria loads in organs; type: in vivo, Balb/c mice; conditions: 10 mg/kg/day intraperitoneal, 4 days
Experimental: FIG. 9 are the bar graphs showing compound 8 and compound 35 reduce bacteria loads in different organs of the mice infected by Staphylococcus aureus. Grubb's test was performed to test for outliers. Statistical analysis was performed with two-sided paired t test. (*p<0.05).
Staphylococcus aureus strain USA300-LAC were cultured to the early exponential phase of growth, washed twice with sterile phosphate-buffered saline solution (PBS), and resuspended in PBS at 5×10^6 CFU/200 μL for non-lethal bacteremia model. The female Balb/c mice, 6-8 weeks, were infected intravenously (i.v.) through the tail vein with Staphylococcus aureus and randomized into three groups (N=14 for vehicle; N=12 for compound 8 and compound 35 respectively). One hour after infection, mice received intraperitoneal injections of compound 8 or compound 35 (10 mg/kg/day) or an injection of buffer (PBS with 2.5% DMSO and 2% Tween-80) as the control. The compound and injection buffer treatments were performed twice per day at 12-h intervals. The challenged mice were monitored for 4 days, at which point all the remaining mice were sacrificed. The CFU of S. aureus were determined in heart, liver, kidney and lung by plating in series dilution. Grubb's test was performed to test for outliers. Statistical analysis was performed with two-sided paired t test. (*p<0.05).

[2] = tested on: Staphylococcus aureus ATCC 29213 cytoplasm pH; assay: Cytoplasmic pH measurement with pHluorin; type: cell-based; conditions: pHluorin fluorescence ratio, 5 minutes incubation
Experimental: Cytoplasm pH was monitored by pH sensitive fluorescent protein over time (s). 2 μM nigericin (Nig) and 2 μM valinomycin (Val) were used as positive control and 1% DMSO was used as negative control. Data represented the mean±S.D. of biological triplicates. Statistical analysis was performed by one-way ANOVA with Dunnett's post-test to calculate p-values adjusted for multiple comparisons with DMSO negative control (*p<0.05; **p<0.01; ***p<0.001).
To construct pHluorinsarA plasmid, pGLsarA plasmid vector was PCR amplified using primers pGL-f (CTGCAGGCATGCAAG; SEQ ID NO: 1) and pGL-r ([…]: SEQ ID NO: 2). […]
A pHlourin standard curve correlating pH and fluorescence ratio was constructed. Briefly, the emission at 510 nm was monitored with excitation wavelengths at 410 nm and 470 nm simultaneously following previously described protocol^18 Overnight culture Staphylococcus aureus ATCC 29213 was sub-cultured 1:100 in fresh CAMH medium and regrown to exponential phase. […] Fluorescence ratio (Excitation wavelength 410 nm/470 nm; emission wavelength 510 nm) was then measured in 1 mL cuvette using Hitachi F-4500 Florescence Spectrometer and plotted against the pH of the buffer. […]

[3] = tested on: Staphylococcus aureus Mu3 cytoplasmic calcium; assay: Calcium influx monitored by Fluo-4-AM; type: cell-based; conditions: Fluo-4-AM fluorescence
Experimental: FIG. 12 is a line graph showing compound 8 can induce calcium influx into cytoplasm. The fluorescence of the Fluo-4-AM loaded in Staphylococcus aureus Mu3 was monitored for 10 minutes. The average of fluorescence in this period was assigned as F0. At t=10 minutes, different concentration of compound 8 was added to bacteria medium and then the fluorescence was further monitored for 40 minutes. Calcium ion transporter ionomycin was used as the positive control. The fluorescence Ft was normalized to initial fluorescence F0. Data represented the mean of biological triplicates.
Briefly, an overnight culture of MRSA Mu3 was sub-cultured 1:100 in fresh CAMH and regrown to exponential phase. The bacteria were washed twice and then re-suspended in PBS (OD595=0.5) containing 5 μM Fluo-4-AM. The bacteria were further incubated at 37° C. in dark for 2 hours before they were washed twice and resuspended into PBS containing 0.5 mM calcium chloride. 200 μL bacteria culture were then added into 96-well plate for each well. The plate was then pre-warmed and the fluorescence was monitored for 10 minutes for background measurement (excitation wavelength: 485 nm, emission wavelength: 535 nm). Fluorescence signal was recorded by Beckman Coulter DTX 880 Multimode Detector. Compounds were then added to 96-well plate and the fluorescence was further monitored for 5 minutes. […]

CC(C)C[C@H](ONC(=O)[C@@H](COCc1ccccc1)ONC(=O)c1cc(C(F)(F)F)cc(C(F)(F)F)c1)C(=O)Nc1ccccc1 [Compound 8]
bacteria load in heart [1]: can reduce the bacteria load | bacteria load in lung [1]: can reduce the bacteria load | cytoplasm pH [2]: can acidify Staphylococcus aureus cytoplasm | calcium influx into cytoplasm [3]: can induce calcium influx into cytoplasm in concentration dependent manner
